Laboratory results taken from patent EP1947089A1, “A-polymorph of a substituted pyrazoline, its preparation and use as medicaments” (Laboratorios del Dr. Esteve S.A., priority 2007, dated 2008).

Experiments:
Herg channel = Herg channel (Homo sapiens, UniProt Q12809); assay: Herg channel affinity; format: binding; conditions: general statement, no value given; low risk of QT prolongation expected
[1] = Thermogravimetric (TG) analysis; format: physicochemical; conditions: 10°C/min between 30 and 600°C, under nitrogen; no weight loss at lower temperatures
Procedure: Thermogravimetric analyses (TGA) were recorded in a Mettler Toldo SDTA851 e. Samples of approximately 2 mg were weighted into open 40 µlalumina crucibles, and heated at 10°C/min between 30 and 600°C, under nitrogen (80 ml/min).

[2] = Behaviour of the solid form under pressure stress; format: physicochemical; conditions: 98 kN (98.07 kN), 13 mm diameter samples, 1, 5 and 30 minutes
Procedure: Samples of the a-Polymorph were submitted to pressure stress for various periods of time (1, 5 and 30 minutes) to investigate the effect of pressure on the solid form. The pressure (98kN) used was chosen to correspond to correspond to the pressure at which planar tablets, of a diameter between 10 and 15 mm, are made. […] Precisely, 13 mm diameter samples of the polymorph were submitted to 98.07 kN of pressure using a Specac press for 1, 5 and 30 minutes and analysed, with no difference.

Sequence of Herg channel (Q12809 whole entry): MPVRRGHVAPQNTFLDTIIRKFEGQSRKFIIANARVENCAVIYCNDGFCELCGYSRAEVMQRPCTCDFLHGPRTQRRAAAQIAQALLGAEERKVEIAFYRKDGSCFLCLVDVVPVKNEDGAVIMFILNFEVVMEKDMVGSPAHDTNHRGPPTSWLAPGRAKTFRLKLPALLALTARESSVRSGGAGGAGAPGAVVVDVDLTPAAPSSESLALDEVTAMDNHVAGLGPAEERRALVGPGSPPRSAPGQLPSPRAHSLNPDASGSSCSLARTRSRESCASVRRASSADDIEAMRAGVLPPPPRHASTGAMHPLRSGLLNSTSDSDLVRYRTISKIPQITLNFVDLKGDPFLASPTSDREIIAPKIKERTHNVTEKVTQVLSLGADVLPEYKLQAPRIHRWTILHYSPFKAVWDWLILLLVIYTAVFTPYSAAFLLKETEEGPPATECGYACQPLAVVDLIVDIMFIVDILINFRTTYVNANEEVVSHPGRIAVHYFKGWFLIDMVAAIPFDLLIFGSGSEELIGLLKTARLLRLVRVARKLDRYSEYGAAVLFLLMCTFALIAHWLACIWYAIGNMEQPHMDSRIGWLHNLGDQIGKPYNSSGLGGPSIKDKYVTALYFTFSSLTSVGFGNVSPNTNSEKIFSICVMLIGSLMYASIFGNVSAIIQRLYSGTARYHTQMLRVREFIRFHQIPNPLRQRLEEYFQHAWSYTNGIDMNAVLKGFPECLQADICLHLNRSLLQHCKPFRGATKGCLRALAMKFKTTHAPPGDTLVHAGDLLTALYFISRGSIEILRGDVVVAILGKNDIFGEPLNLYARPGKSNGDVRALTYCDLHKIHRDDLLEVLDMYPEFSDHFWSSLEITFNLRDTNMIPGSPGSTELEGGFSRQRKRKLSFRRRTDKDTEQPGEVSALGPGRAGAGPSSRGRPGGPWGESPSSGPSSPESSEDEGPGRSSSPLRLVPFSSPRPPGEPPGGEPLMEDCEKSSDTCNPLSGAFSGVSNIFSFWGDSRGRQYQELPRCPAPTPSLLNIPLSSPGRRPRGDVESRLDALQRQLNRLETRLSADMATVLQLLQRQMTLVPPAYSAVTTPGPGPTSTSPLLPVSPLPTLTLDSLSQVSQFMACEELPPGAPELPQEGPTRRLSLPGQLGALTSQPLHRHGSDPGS

temperature of weight loss due to decomposition (TG analysis) [1]	effect of pressure on the solid form (phase change) [2]	Structure (SMILES)	Herg channel affinity (Herg channel)
–	–	O=C(NN1CCCCC1)C1=NN(c2ccc(Cl)cc2Cl)C(c2ccc(Cl)cc2)C1 (racemic) [COMPOUND C, N-piperidinyl-5-(4-chlorophenyl)-1-(2,4-dichlorophenyl)-4,5-dihydro-1H-pyrazole-3-carboxamide]	relatively weak
higher than 280 °C	did not induce any phase change	O=C(NN1CCCCC1)C1=NN(c2ccc(Cl)cc2Cl)C(c2ccc(Cl)cc2)C1 (racemic) [α-Polymorph, α-Polymorph of N-piperidinyl-5-(4-chlorophenyl)-1-(2,4-dichlorophenyl)-4,5-dihydro-1H-pyrazole-3-carboxamide]	–
